Assay results from publication PMC7904827 (Scientific Reports, 2021).
Where two headings read alike, the source gives them in different places.

Tests used:
[1] = Freeze-thaw and storage stability in plasma at -80 °C; type: in vitro ADME, rabbit; conditions: for % of initial concentration, 1st freeze-thaw cycle / % of initial concentration, 2nd freeze-thaw cycle: plasma, -80 °C
Method: ICRF-193 and ICRF-193met in plasma, respectively. Unweighted and weighted (1/x and 1/x2) linear regression was applied to obtain the best fitting calibration model. […]
(§1) Stability of the analytes was examined at low and high concentrations. Process s tability (n=3) in plasma was tested for 20 min at either laboratory temperature (23 °C) or on ice (4 °C, only for GK-667). Post-preparation stability was examined for 8 to 10 h in an autosampler (8 °C, n=3) for all treated matrices. […]
plasma was tested at -80 °C and the freezing cycle was repeated twice (n=3). […]

[2] = Post-preparation stability of the extracted analytes in autosampler (8 °C); type: physicochemical
Method: Linearity was tested within the concentration range of 0.2 – 100 μM for all compounds in DMEM, the buffer and plasma and 10-100 pmol/106cells in NVCMs (method I). For […]
Unweighted and weighted (1/x and 1/x2) linear regression was applied to obtain the best fitting calibration model.
Accuracy and precision were calculated at 4 levels (LLOQ, low, medium and high concentrations). Five quality control (QC) samples were used for all concentration levels. […]
as §1
plasma was tested at -80 °C and the freezing cycle was repeated twice (n=3). The buffer, DMEM, NVCMs and plasma samples containing GK -667 from in vitro studies and from first intervals of pharmacokinetic study (up to 20 min) w ere treated and analyzed immediately after […]

[3] = Approximate solubility in distilled water at room temperature; type: physicochemical; conditions: reason why it was not administered separately
Method: The syntheses of the target prodrugs were performed according to a known three-step procedure with some modifications. Target prodrugs GK-667, GK-678 and GK-691 were obtained in 34%, 37% and 17% overall yields, respectively. […] The resulting solutions remained physically stable for at least two hours at room temperature.

[4] = Population pharmacokinetic analysis in rabbits; type: in vivo, rabbit; conditions: population median
Text: All model parameters of ICRF-193 and ICRF-193met could not be simultaneously estimated by stochastic approximation expectation maximization (SAEM) in one step. […] A maximum likelihood estimation was used to calculate the parameters CLmet, CLother, V4, and CLICRF-193met. For the remaining parameters of the parent-metabolite model (Fig. S5), a maximum a posteriori (MAP) estimation was adopted. The residual error in the population kinetic analysis was best described with a proportional model.
Standard noncompartmental analysis was performed using Kinetica software (version 4.0, Thermo Fisher Scientific Inc., USA). The population parameter estimation for nonlinear mixed effect models was conducted using Monolix version 2019R2 software (Antony, France: Lixoft SAS, 2019, http://lixoft.com/products/monolix/). […] For evaluation of the goodness-of-fit, the following plots were assessed: observed versus individual predicted concentrations, weighted residuals versus time and weighted residuals versus predictions. […]
Hydrolysis of GK-667 is very fast and the parent compound was essentially completely cleared from plasma within 10 min after injection. ICRF-193 was quantitatively dominating at the first sampling interval (5 min). […]

[5] = In vivo pharmacokinetic study of GK-667 in rabbits, noncompartmental analysis; parameters: species or system rabbit
Method: GK-667 was freshly dissolved in saline (5 mg/mL) before each administration. New Zealand White male rabbits (n = 6, ∼3.8 kg) received GK-667 (5 mg/kg) administered as a single slow (2 min) intravenous dose bolus to the ear marginal vein. Blood (∼1 mL) was sampled from veins on the contralateral ear at selected time points after drug administration (5 min to 9 h) into BD Vacutainers (BD Biosciences, Plymouth, UK) containing lithium heparin. Collected blood samples were immediately centrifuged (2 min, 3000 rpm, 4 °C), and plasma samples were harvested directly.
Plasma samples taken 0 to 20 min after GK-667 administration were immediately processed by the addition of formic acid and precipitation with ice-cold methanol. The supernatants were then analyzed for all analytes, including the intact prodrug. This was essential to ensure the appropriate determination of highly labile GK-667 at the first sampling intervals, and the whole procedure was validated for this purpose. […] Thus, all following plasma samples were immediately shock-frozen in liquid nitrogen and stored at -80 °C until analysis.
For drug administration and blood sampling, light anesthesia was induced in rabbits with a mixture of ketamine (25 mg/kg, i.m.) and midazolam (2.5 mg/kg, i.m.); sedation was then maintained with midazolam when needed. The blood withdrawn from the animals was compensated with an appropriate volume of sterile saline. All in vivo experiments and procedures were approved and supervised by the Animal Welfare Committee of the Faculty of Medicine in Hradec Kralove (Charles University), and the experiments were performed in compliance with the ARRIVE guidelines.
Standard noncompartmental analysis was performed using Kinetica software (version 4.0, Thermo Fisher Scientific Inc., USA). The population parameter estimation for nonlinear mixed effect models was conducted using Monolix version 2019R2 software (Antony, France: Lixoft SAS, 2019, http://lixoft.com/products/monolix/). The stochastic approximation expectation maximization (SAEM) algorithm coupled with Markov Chain Monte Carlo (MCMC) without the use of approximations (linearization) was used for the estimation of the likelihood. For evaluation of the goodness-of-fit, the following plots were assessed: observed versus individual predicted concentrations, weighted residuals versus time and weighted residuals versus predictions. Individual parameter values were obtained as empirical Bayes estimates. A visual predictive check with 1000 simulated data sets was performed.

[6] = Process stability in untreated plasma; type: in vitro ADME, rabbit; conditions: 23 °C, 20 min
Method: Linearity was tested within the concentration range of 0.2 – 100 μM for all compounds in DMEM, the buffer and plasma and 10-100 pmol/106cells in NVCMs (method I). For method II, the concentration ranges 0.01-15 μM and 0.01-1 μM were used for determination of ICRF-193 and ICRF-193met in plasma, respectively. Unweighted and weighted (1/x and 1/x2) linear regression was applied to obtain the best fitting calibration model. […]
as §1

[7] = parameters: method as in PMID 29273587; conditions: DEX in the same species (rabbit); cited from earlier work
[8] = test system: neonatal ventricular cardiomyocytes (NVCMs); conditions: same assay; cited from earlier work
[9] = test system: neonatal ventricular cardiomyocytes (NVCMs); assay: In vitro cardioprotection bioassay against daunorubicin toxicity (LDH release); type: cell-based, rat; conditions: 3 h preincubation, DAU 1.2 µM, LDH release after 48 h
Method: NVCMs were isolated in-house from 1- to 3-day-old Wistar rats as described previously. The use of animals and experimental protocols were approved by Charles University, Faculty of Pharmacy Animal Welfare Committee. All experiments were performed in accordance with Directive 2010/63/EU on the Protection of Animals Used for Scientific Purposes and in compliance with Animal Research: Reporting of In Vivo Experiments (ARRIVE) guidelines. Newly isolated cardiomyocytes were left for 40 h to form a monolayer of spontaneously beating cardiomyocytes in seeding medium (DMEM/F12 supplemented with 10% HS, 5% FBS, 4% PYR and 1% P/S), which was then replaced with culture medium (DMEM/F12 supplemented with 5% FBS, 4% PYR and 1% P/S). The medium was replaced again after 24 h for new culture medium.
After 3 h, DAU solution (1.2 µM) was added to the media. After another 3 h, the medium was replaced with new (drug-free) exposure medium, and the cardiomyocytes were then kept until the end of the experiment. In addition to cytoprotective properties, the toxicity of the studied agent was also examined; this experiment was performed as described above with only the DAU addition step omitted.
Forty-five hours after the last medium exchange, a sample of medium was taken from each well to assess lactate dehydrogenase (LDH) activity[27]–[29]. For details, see the Supplementary material.
1.5 LDH activity evaluation
The control wells were treated with lysis buffer (0.1 M potassium phosphate, 1% Triton
X-100, 1 mM DTT, 2 mM EDTA; pH 7.8; 15 min; room temperature) to measure the total
cellular LDH level (sum of the activity in the control medium and the lysate). The activity of
LDH was assayed in Tris-HCl buffer (pH 8.9) containing 35 mM sodium lactate and 5 mM
NAD+. The rate of NAD+ reduction was monitored spectrophotometrically at 340 nm for 2 min.
The slope of the linear region and molar absorption coefficient e = 6.22*10 3 M/cm were used
to calculate the LDH activity, and the data were expressed as a percentage of total L DH activity. […]

[10] = test system: topoisomerase IIβ (TOP2B); conditions: compared with DEX; cited from earlier work
[11] = 100 µM, same conditions, compared with GK-667; cited from earlier work
[12] = male, New Zealand White, rabbit, plasma, iv, rabbits n = 6, GK-667 5 mg/kg i.v., NCA
[13] = rabbits n = 6, GK-667 5 mg/kg i.v., NCA

Compound: C[C@H]([C@H](C)N(CC(N)=O)CC(=O)O)N(CC(N)=O)CC(=O)O [ICRF-193met]
- degradation in plasma on storage ([1]; -80 °C for 1 month): no significant degradation
- % of initial concentration, 1st freeze-thaw cycle ([1]; initial concentration 0.05 µM): 94.1 ± 4.3%
- % of initial concentration, 2nd freeze-thaw cycle ([1]; initial concentration 0.05 µM): 91.7 ± 0.7%
- % of initial concentration, 1st freeze-thaw cycle ([1]; initial concentration 1.00 µM): 93.9 ± 5.7%
- % of initial concentration, 2nd freeze-thaw cycle ([1]; initial concentration 1.00 µM): 91.4 ± 7.0%
- percentage of initial concentration in autosampler ([2]; extracted DMEM, 100 µM, 0 h): 101.5%
- percentage of initial concentration in autosampler ([2]; extracted DMEM, 100 µM, 8 h): 102.1%
- percentage of initial concentration in autosampler ([2]; extracted DMEM, 100 µM, 10 h): 102.7%
- percentage of initial concentration in autosampler ([2]; extracted NVCMs, 100 pmol/106 cells, 0 h): 100.0%
- percentage of initial concentration in autosampler ([2]; extracted NVCMs, 100 pmol/106 cells, 8 h): 97.7%
- percentage of initial concentration in autosampler ([2]; extracted NVCMs, 100 pmol/106 cells, 10 h): 95.0%
- percentage of initial concentration in autosampler ([2]; extracted buffer, 100 µM, 0 h): 102.3%
- percentage of initial concentration in autosampler ([2]; extracted buffer, 100 µM, 8 h): 102.0%
- percentage of initial concentration in autosampler ([2]; extracted plasma, 100 µM, 0 h): 100.4%
- percentage of initial concentration in autosampler ([2]; extracted plasma, 100 µM, 8 h): 96.5%
- percentage of initial concentration in autosampler ([2]; extracted plasma, 100 µM, 10 h): 99.1%
- solubility (in words) [3]: poor solubility
- V4 ([4]; distribution volume for ICRF-193met): 0.31 L/kg
- CLICRF-193met ([4]; total clearance of ICRF-193met): 2.83 mL/min/kg
- half-life ([5]; male, New Zealand White, rabbit, plasma, iv, 5 mg/kg): 1.4 h
- Cmax ([5]; male, New Zealand White, rabbit, plasma, iv, 5 mg/kg, rabbits n = 6, GK-667 5 mg/kg i.v., NCA): 800 nM
- AUC [5, 12]: 2.7 µM·h
- AUC(0-t) [5, 12]: 2.6 µM·h
- MRT [5, 12]: 2.6 h
- k el ([5]; male, New Zealand White, rabbit, plasma, iv, rabbits n = 6, GK-667 5 mg/kg i.v., NCA, read-out: λz (converted)): 0.000144 s⁻¹
- Tmax ([5]; male, New Zealand White, rabbit, plasma, iv, rabbits, GK-667 5 mg/kg i.v., read-out: median tmax): 2 h
- AUMClast [5, 13]: 6.5 h^2∙µM
- AUMCtot [5, 13]: 7.1 h^2∙µM
- Cmax [5, 13]: 830 nM
- Tmax [5, 13]: 2 h
- stability in untreated plasma at laboratory temperature [6]: stable

Compound: C[C@@H](CN1CC(=O)NC(=O)C1)N1CC(=O)NC(=O)C1 [DEX, dexrazoxane]
- clearance [7]: 5 mL/min/kg
- elimination half-life [7]: 2.0 h
- concentrations with significant protective effects against DAU toxicity [8]: ≥ 10 µM

Compound: ICRF-193 [reference compound]
- lowest concentration with significant protection against DAU-induced toxicity [9]: 0.3 µM
- potency in the TOP2B inhibitory assay [10]: markedly higher potency

Compound: CC(C)COC(=O)OCN1C(=O)CN(CCN2CC(=O)N(COC(=O)OCC(C)C)C(=O)C2)CC1=O [sobuzoxane]
- decomposition in DMEM [11]: much slower
